Molecular target: T1, human GPR43 receptor (hGPR43) (Homo sapiens, UniProt O15552)
T1 construct: expressed in transfected cells
T1 sequence (O15552 1-330): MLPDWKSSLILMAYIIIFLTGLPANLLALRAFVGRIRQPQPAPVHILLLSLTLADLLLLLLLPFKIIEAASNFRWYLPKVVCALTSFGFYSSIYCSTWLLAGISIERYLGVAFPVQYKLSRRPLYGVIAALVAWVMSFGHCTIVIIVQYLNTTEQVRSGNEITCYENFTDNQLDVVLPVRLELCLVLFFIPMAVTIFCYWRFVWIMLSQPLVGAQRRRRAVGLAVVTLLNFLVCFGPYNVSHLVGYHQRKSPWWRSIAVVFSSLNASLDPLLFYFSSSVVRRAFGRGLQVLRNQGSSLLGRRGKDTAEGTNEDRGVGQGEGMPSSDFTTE
Assay: GTPγS binding assay (SPA method)
Assay type: biochemical
Conditions: membranes expressing hGPR43; assay performed in the presence of SCFA; read-out: EC50 (nM) in GTPγ35S assay
Text: The following assay can be used for determination of GPR43 activation. When a GPCR is in its active state, either as a result of ligand binding or constitutive activation, the receptor couples to a G protein and stimulates the release of GDP and subsequent binding of GTP to the G protein. The alpha subunit of the G protein-receptor complex acts as a GTPase and slowly hydrolyses the GTP to GDP, at which point the receptor normally is deactivated. Activated receptors continue to exchange GDP for GTP. […] The assay uses the ability of GPCR to stimulate [^35S]GTPγS binding to membranes expressing the relevant receptors. The assay can, therefore, be used in the direct identification method to screen candidate compounds to endogenous or not endogenous GPCR.
Membrane extracts were prepared from cells expressing the human GPR43 receptor (hGPR43) as follows: the medium was aspirated and the cells were scraped from the plates in Ca^++ and Mg^++-free Phosphate-buffered saline (PBS). The cells were then centrifuged for 3 min at 1500 g and the pellets were resuspended in buffer A (15 mM Tris-HCl pH 7.5, 2 mM MgCl2, 0.3 mM EDTA, 1 mM EGTA) and homogenized in a glass homogenizer. […] Protein content was assayed by the Folin method.
The assay was performed in the presence of SCFA, and was used to determine the activity of the compounds of the invention.
The [^35S]GTPγS assay was incubated in 20 mM HEPES pH7.4, 100 mM NaCl, 10 μg/ml saponin, 30 mM of MgCl2, 10 μM of GDP, 5 μg membrane-expressing hGPR43, 250 μg of wheatgerm agglutinin beads (Amersham, ref: RPNQ001), a range concentration of compounds (from 30 μM to 1 nM) in a final volume of 100 μl for 30 min at room temperature. The SCFA propionate was used at 1 mM final concentration as positive control. The plates were then centrifuged for 10 minutes at 2000 rpm, incubated for 2 hours at room temperature and counted for 1 min in a scintillation counter (TopCount, PerkinElmer).

| EC50 [nM] | SMILES |
| --- | --- |
| 442 | Cc1cc(-c2csc(NC(=O)[C@@H](CC(=O)O)Cc3ccccc3)n2)c(C)s1 [Compound 102, (R)-3-benzyl-4-(4-(2,5-dimethylthiophen-3-yl)thiazol-2-ylamino)-4-oxobutanoic acid] |
| 137 | CN(C(=O)C(CC(=O)O)CC1CCCCC1)c1nc(-c2ccccc2Cl)cs1 (centres unmarked) [Compound 103, 4-((4-(2-chlorophenyl)thiazol-2-yl)(methyl)amino)-3-(cyclohexylmethyl)-4-oxobutanoic acid] |
| 216 | C[C@@H](c1ccccc1)[C@H](CC(=O)O)C(=O)N(C)c1nc(-c2ccccc2Cl)cs1 [Compound 106, (3S ,4R)-3-((4-(2-chlorophenyl)thiazol-2-yl)(methyl)carbamoyl)-4-phenylpentanoic acid] |
| 361 | CN(C(=O)[C@@H](CC(=O)O)Cc1ccccc1)c1nc(-c2ccccc2-c2ccsc2)cs1 [Compound 107, (R)-3-benzyl-4-(methyl(4-(2-(thiophen-3-yl)phenyl)thiazol-2-yl)amino)-4-oxobutanoic acid] |
| 305 | CN(C(=O)[C@@H](CC(=O)O)Cc1ccccc1)c1nc(-c2ccccc2-c2ccc(Cl)nc2)cs1 [Compound 108, (R)-3-benzyl-4-((4-(2-(6-chloropyridin-3-yl)phenyl)thiazol-2-yl)(methyl)amino)-4-oxobutanoic acid] |
| 452 | Cc1ccc(CC(CC(=O)O)C(=O)N(C)c2nc(-c3ccccc3Cl)cs2)cc1 (centres unmarked) [Compound 110, 4-((4-(2-chlorophenyl)thiazol-2-yl)(methyl)amino)-3-(4-methylbenzyl)-4-oxobutanoic acid] |
| 393 | CN(C(=O)[C@@H](CC(=O)O)Cc1ccccc1)c1nc(-c2ccccc2-c2ccccc2)cs1 [Compound 111, (R)-4-((4-([1,1′-biphenyl]-2-yl)thiazol-2-yl)(methyl)amino)-3-benzyl-4-oxobutanoic acid] |
| 538 | O=C(O)C[C@@H](Cc1ccccc1)C(=O)Nc1nc(-c2cc(Cl)sc2Cl)cs1 [Compound 112, (R)-3-benzyl-4-(4-(2,5-dichlorothiophen-3-yl)thiazol-2-ylamino)-4-oxobutanoic acid] |
| 226 | CN(C(=O)C(CC(=O)O)CC1CC1)c1nc(-c2ccccc2Cl)cs1 (centres unmarked) [Compound 113, 4-((4-(2-chlorophenyl)thiazol-2-yl)(methyl)amino)-3-(cyclopropylmethyl)-4-oxobutanoic acid] |
| 539 | CN(C(=O)C(CC(=O)O)Cc1cscn1)c1nc(-c2ccccc2Cl)cs1 (centres unmarked) [Compound 114, 4-((4-(2-chlorophenyl)thiazol-2-yl)(methyl)amino)-4-oxo-3-(thiazol-4-ylmethyl)butanoic acid] |
| 72 | CN(C)c1ccc(-c2ccccc2-c2csc(N(C)C(=O)[C@@H](CC(=O)O)Cc3ccccc3)n2)cn1 [Compound 115, (R)-3-benzyl-4-((4-(2-(6-(dimethylamino)pyridin-3-yl)phenyl)thiazol-2-yl)(methyl)amino)-4-oxobutanoic acid] |
| 175 | COc1ccc(-c2ccccc2-c2csc(N(C)C(=O)[C@@H](CC(=O)O)Cc3ccccc3)n2)cn1 [Compound 116, (R)-3-benzyl-4-((4-(2-(6-methoxypyridin-3-yl)phenyl)thiazol-2-yl)(methyl)amino)-4-oxobutanoic acid] |
| 421 | CN(C(=O)[C@@H](CC(=O)O)Cc1ccccc1)c1nc(-c2ccccc2-c2ccc(F)nc2)cs1 [Compound 119, (R)-3-benzyl-4-((4-(2-(6-fluoropyridin-3-yl)phenyl)thiazol-2-yl)(methyl)amino)-4-oxobutanoic acid] |
| 766 | NC(=O)CN(C(=O)[C@@H](CC(=O)O)Cc1ccccc1)c1nc(-c2ccccc2Cl)cs1 [Compound 121, (R)-4-((2-amino-2-oxoethyl)(4-(2-chlorophenyl)thiazol-2-yl)amino)-3-benzyl-4-oxobutanoic acid] |
| 134 | O=C(O)C[C@@H](Cc1ccccc1)C(=O)Nc1nc(-c2cc(Cl)ccc2Cl)cs1 [Compound 123, (R)-3-benzyl-4-((4-(2,5-dichlorophenyl)thiazol-2-yl)amino)-4-oxobutanoic acid] |
| 183 | COC(=O)CCN(C(=O)[C@@H](CC(=O)O)Cc1ccccc1)c1nc(-c2ccccc2Cl)cs1 [Compound 126, (R)-3-benzyl-4-((4-(2-chlorophenyl)thiazol-2-yl)(3-methoxy-3-oxopropyl)amino)-4-oxobutanoic acid] |
| 858 | COc1ccc(-c2ccccc2-c2csc(N(C)C(=O)[C@@H](CC(=O)O)Cc3ccccc3)n2)cc1 [Compound 129, (R)-3-benzyl-4-((4-(4′-methoxy-[1,1′-biphenyl]-2-yl)thiazol-2-yl)(methyl)amino)-4-oxobutanoic acid] |
| 96 | CN(C(=O)[C@@H](CC(=O)O)Cc1ccccc1)c1nc(-c2ccccc2-c2ccc(N3CCCC3)nc2)cs1 [Compound 131, (R)-1-(5-(2-(2-(2-benzyl-3-carboxy-N-methylpropanamido)thiazol-4-yl)phenyl)pyridin-2-yl)pyrrolidin-1-ium 2,2,2-trifluoroacetate] |
| 276 | CN(C(=O)[C@@H](CC(=O)O)Cc1ccccc1)c1nc(-c2ccccc2-c2ccc(N3CCOCC3)cc2)cs1 [Compound 132, (R)-4-(2′-(2-(2-benzyl-3-carboxy-N-methylpropanamido)thiazol-4-yl)-[1,1′-biphenyl]-4-yl)morpholin-4-ium 2,2,2-trifluoroacetate] |
| 241 | CN(C(=O)[C@@H](CC(=O)O)Cc1ccccc1)c1nc(-c2ccccc2-c2ccc(N3CCOCC3)nc2)cs1 [Compound 133, (R)-3-benzyl-4-(methyl(4-(2-(6-morpholinopyridin-3-yl)phenyl)thiazol-2-yl)amino)-4-oxobutanoic acid] |
| 796 | CN(C(=O)[C@@H](CC(=O)O)Cc1ccccc1)c1nc(-c2ccccc2-c2ccoc2)cs1 [Compound 135, (R)-3-benzyl-4-((4-(2-(furan-3-yl)phenyl)thiazol-2-yl)(methyl)amino)-4-oxobutanoic acid] |
| 996 | CN(C(=O)[C@@H](CC(=O)O)Cc1ccccc1)c1nc(-c2ccccc2-c2ccc(OC3CCOCC3)nc2)cs1 [Compound 141, (R)-3-benzyl-4-(methyl(4-(2-(6-((tetrahydro-2H-pyran-4-yl)oxy)pyridin-3-yl)phenyl)thiazol-2-yl)amino)-4-oxobutanoic acid] |
| 77 | CN(C(=O)C(CC(=O)O)Cc1ccco1)c1nc(-c2ccccc2Cl)cs1 (centres unmarked) [Compound 143] |
| 897 | CN(C(=O)[C@@H](CC(=O)O)Cc1ccccc1)c1nc(-c2ccccc2C2CC2)cs1 [Compound 144, (R)-3-benzyl-4-((4-(2-cyclopropylphenyl)thiazol-2-yl)(methyl)amino)-4-oxobutanoic acid] |
| 225 | CN(C(=O)[C@@H](CC(=O)O)Cc1ccccc1)c1nc(-c2ccccc2-c2ccc(Cl)cc2)cs1 [Compound 149, (R)-3-benzyl-4-((4-(4′-chloro-[1,1′-biphenyl]-2-yl)thiazol-2-yl)(methyl)amino)-4-oxobutanoic acid] |
| 353 | CN(C(=O)[C@@H](CC(=O)O)Cc1ccccc1)c1nc(-c2ccccc2-c2ccc(N3CCCC3=O)nc2)cs1 [Compound 150, (R)-3-benzyl-4-(methyl(4-(2-(6-(2-oxopyrrolidin-1-yl)pyridin-3-yl)phenyl)thiazol-2-yl)amino)-4-oxobutanoic acid] |
| 832 | CN(C(=O)[C@@H](CC(=O)O)CC1CCCO1)c1nc(-c2ccccc2Cl)cs1 (stereo partly drawn) [Compound 154, (3R)-4-((4-(2-chlorophenyl)thiazol-2-yl)(methyl)amino)-4-oxo-3-((tetrahydrofuran-2-yl)methyl)butanoic acid] |
| 867 | O=C(O)C[C@@H](Cc1ccccc1)C(=O)N(CCCO)c1nc(-c2ccccc2Cl)cs1 [Compound 156, (R)-3-benzyl-4-((4-(2-chlorophenyl)thiazol-2-yl)(3-hydroxypropyl)amino)-4-oxobutanoic acid] |
| 49 | CN(C(=O)[C@@H](CC(=O)O)Cc1ccccc1)c1nc(-c2ccccc2-c2ccc(OCc3ccccc3)nc2)cs1 [Compound 158, (R)-3-benzyl-4-((4-(2-(6-(benzyloxy)pyridin-3-yl)phenyl)thiazol-2-yl)(methyl)amino)-4-oxobutanoic acid] |
